Data on 5 compounds can be found in PMC9671096 (Molecular pharmaceutics, 2021).

Where a SMILES comes first, the peptide text is derived from it. The star is where a group is joined. Cbz = O=C(OCc1ccccc1)*

Assay [1] addresses HiBiT-GPER (Homo sapiens, UniProt Q99527). The assay is classed as cell-based. The following applies: for effect on UI-EP001/UI-EP002-mediated degradation of HiBiT-GPER: with 100 μM UI-EP001 or UI-EP002, 1 hour, MG132 10 μM, chloroquine 100 μM, E2 or aldosterone 100 nM-100 μM. For orientation: HiBiT is a short tag that completes a luciferase, so light tracks the accessible tagged protein.

The target in assay [2] is T1, HiBiT-ERα (Homo sapiens, UniProt P03372).
T1 sequence (P03372 1-595): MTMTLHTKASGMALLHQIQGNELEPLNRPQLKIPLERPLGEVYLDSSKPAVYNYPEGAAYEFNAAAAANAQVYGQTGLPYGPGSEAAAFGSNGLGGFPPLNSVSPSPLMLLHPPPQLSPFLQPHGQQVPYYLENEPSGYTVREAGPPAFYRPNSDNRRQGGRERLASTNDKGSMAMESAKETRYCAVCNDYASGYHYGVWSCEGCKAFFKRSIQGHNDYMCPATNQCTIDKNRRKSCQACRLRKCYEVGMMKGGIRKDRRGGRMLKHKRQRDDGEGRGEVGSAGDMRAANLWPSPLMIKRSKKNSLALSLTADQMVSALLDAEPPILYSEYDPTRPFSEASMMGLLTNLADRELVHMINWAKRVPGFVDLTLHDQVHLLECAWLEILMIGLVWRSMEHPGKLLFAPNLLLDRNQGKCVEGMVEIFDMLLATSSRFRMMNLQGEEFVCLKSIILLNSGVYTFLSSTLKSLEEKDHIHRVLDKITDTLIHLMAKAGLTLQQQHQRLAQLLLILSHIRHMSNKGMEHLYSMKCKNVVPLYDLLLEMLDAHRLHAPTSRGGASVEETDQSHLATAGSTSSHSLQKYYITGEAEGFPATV
The assay is classed as cell-based. The following applies: for effect on UI-EP001/UI-EP002-mediated degradation of HiBiT-ERα: with 100 μM UI-EP001 or UI-EP002, 1 hour, MG132 10 μM, chloroquine 100 μM, E2 or aldosterone 100 nM-100 μM.

Assay [3] has as its system ERs. It is filed as binding, human. The settings on record: IC50 of 17β-E2 divided by IC50 of test compound; MCF-7 cytosol.
The test system of assay [4] is MDA-MB-231. In words: Cell cycle analysis. The settings on record: MDA-MB-231, 10 μM, 24 hours. The assay is classed as cell-based, human.
For assay [5], the system named is MCF-7. In words: Cell cycle analysis. It is filed as cell-based, human. The settings on record: MCF-7, 10 μM, 24 hours.
In assay [6] the target is T2, GPER (Homo sapiens, UniProt Q99527). In words: Intact cell competitive binding assay with E2-FITC tracer. The settings on record: intact SKBR3 cells, concentrations as high as 10 μM.
Assay [7] concerns SKBR3. In words: Cell cycle analysis. It is filed as cell-based, human. The following applies: SKBR3, 10 μM, 24 hours.
The test system of assay [8] is HCC-1806. In words: Cell cycle analysis. It is filed as cell-based, human. The settings on record: HCC-1806, 10 μM, 24 hours.
Assay [9] has as its target T3, ERα (Homo sapiens, UniProt P03372).
T3 sequence (P03372 1-595): T1 sequence (P03372 1-595)
In words: Immunostaining of endogenous ERα in MCF-7 cells. The following applies: 1 hour. It is filed as cell-based.

The target of assay [10] is T2, GPER. In words: Immunostaining of endogenous GPER in MCF-7 cells. The settings on record: 1 hour. It is filed as cell-based.
Assay [11] concerns the target ERβ (Homo sapiens, UniProt Q92731). In words: Immunostaining of endogenous ERβ in MCF-7 cells. It is filed as cell-based. The settings on record: 1 hour.

HiBiT-GPER, sequence (Q99527 whole entry): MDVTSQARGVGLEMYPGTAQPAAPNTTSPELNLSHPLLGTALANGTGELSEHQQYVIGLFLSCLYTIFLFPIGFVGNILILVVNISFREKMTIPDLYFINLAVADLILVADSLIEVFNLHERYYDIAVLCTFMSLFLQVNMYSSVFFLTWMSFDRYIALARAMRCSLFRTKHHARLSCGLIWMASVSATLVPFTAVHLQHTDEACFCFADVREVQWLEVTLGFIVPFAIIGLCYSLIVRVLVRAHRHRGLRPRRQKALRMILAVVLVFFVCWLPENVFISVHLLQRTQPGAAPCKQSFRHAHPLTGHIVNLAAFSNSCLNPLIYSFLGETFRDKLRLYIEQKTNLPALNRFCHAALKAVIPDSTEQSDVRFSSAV
T2 sequence (Q99527 whole entry): as above
ERβ, sequence (Q92731 whole entry): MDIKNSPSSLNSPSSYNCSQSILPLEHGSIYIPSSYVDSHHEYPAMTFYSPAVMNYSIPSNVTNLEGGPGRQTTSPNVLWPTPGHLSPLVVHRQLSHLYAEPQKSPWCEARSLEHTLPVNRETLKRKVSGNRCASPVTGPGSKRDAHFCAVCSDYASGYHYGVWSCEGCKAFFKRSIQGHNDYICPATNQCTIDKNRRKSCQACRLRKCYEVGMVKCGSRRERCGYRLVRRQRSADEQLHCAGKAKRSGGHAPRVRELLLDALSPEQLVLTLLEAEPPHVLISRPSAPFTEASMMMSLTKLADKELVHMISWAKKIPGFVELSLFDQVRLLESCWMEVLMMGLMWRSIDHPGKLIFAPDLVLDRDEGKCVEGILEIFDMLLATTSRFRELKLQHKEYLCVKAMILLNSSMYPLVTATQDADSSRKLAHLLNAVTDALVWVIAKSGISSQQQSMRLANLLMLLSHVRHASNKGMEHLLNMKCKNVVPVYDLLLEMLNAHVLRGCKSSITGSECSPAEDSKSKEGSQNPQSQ

Consider `CC(C)C[C@@H](C=O)NC(=O)[C@H](CC(C)C)NC(=O)[C@H](CC(C)C)NC(=O)OCc1ccccc1` [MG132] (Cbz-Leu-Leu-Leu-aldehyde), for which the “effect on UI-EP001/UI-EP002-mediated degradation of HiBiT-GPER” value (shortened to “effect … of HiBiT-GPER”) in [1] is on record as “reversed”. Also, in assay [2], the “effect on UI-EP001/UI-EP002-mediated degradation of HiBiT-ERα” value was “reversed”.

Turning to `CCN(CC)CCCC(C)Nc1ccnc2cc(Cl)ccc12` (centres unmarked) [chloroquine, chloroquine diphosphate], in assay [1], the “effect … of HiBiT-GPER” value is listed as “had no such effect”.

On to `C[C@]12CC[C@@H]3c4ccc(O)cc4CC[C@H]3[C@@H]1CC[C@@H]2O` [Estradiol, 17β-estradiol], for which, in assay [3], the “ERs RBA%” value came to 100.0%.

For the compound `Cc1ncsc1-c1ccc(CNC(=O)C2CC(O)CN2C(=O)C(NC(=O)COCCOCCOCCOCC(=O)O)C(C)(C)C)cc1` (centres unmarked) [Partial PROTAC], the “decrease of HiBiT-GPER” value in [1] (100 μM, 1 hour) is given as “did not show any significant decrease”. Besides, the “receptor present following treatment” value in [1] (100 μM, 8 hrs, text does not say which receptor (HiBiT-GPER or HiBiT-ER)) is 83%. Besides, the “cell cycle distribution shift (G2/M arrest)” value in assay [4], in [5], in [7] and in [8] was “much less significant shift” each time. Also, the “competition for E2-FITC binding to GPER” value in assay [6] is “unable to compete”. Further, the “reduction of nuclear ERα” value in [9] is “did not impact”. The “reduction of intracellular GPER” value in assay [10] is on record as “did not impact”. The “reduction of nuclear ERβ” value in assay [11] is “did not impact”. Moreover, the “decrease of HiBiT-ERα” value in assay [2] (100 μM, 1 hour) is listed as “did not show any significant decrease”.

`C[C@]12CCC(=O)C=C1CC[C@@H]1[C@@H]2[C@@H](O)C[C@]2(C=O)[C@@H](C(=O)CO)CC[C@@H]12` [aldosterone]: the “effect … of HiBiT-GPER” value in assay [1] is listed as “not aldosterone was capable of blocking”. For the same compound, in assay [2], the “effect on UI-EP001/UI-EP002-mediated degradation of HiBiT-ERα” value was “not aldosterone was capable of blocking”.
